Measurements as given in patent publication US11001596B2, “7-phenylethylamino-4H-pyrimido[4,5-d][1,3]oxazin-2-one compounds as mutant IDH1 and IDH2 inhibitors” (Eli Lilly and Company, priority 2016, dated 2021).

Tests used:
[1] = target: Wild-type IDH1 (Homo sapiens (Human), UniProt O75874); assay: Biochemical assay for wild-type IDH1 enzyme (isocitrate to αKG, LC-MS); settings: pH 7.5
Method: (§1) IDH1 and IDH2 enzymes catalyze the conversion of isocitrate to αKG. […] Following derivatization at room temperature for one hour, samples are extracted with 600 μL of EtOAc.

[2] = target: Wild-type IDH2 (Homo sapiens (Human), UniProt P48735); assay: Biochemical assay for wild-type IDH2 enzyme (isocitrate to αKG, LC-MS); settings: pH 7.5
Method: as §1

[3] = target: IDH2-R140Q (Homo sapiens (Human), UniProt P48735, R140Q); assay: Biochemical assay for IDH2 R140Q mutant enzyme (conversion of αKG to 2HG, RapidFire MS); settings: IDH2/R140Q IC50, 1.2 nM enzyme, 90 minutes, pH 7.0
[4] = target: IDH2-R172K (Homo sapiens (Human), UniProt P48735, R172K); assay: Biochemical assay for IDH2 R172K mutant enzyme (conversion of αKG to 2HG, RapidFire MS); settings: IDH2/R172K IC50, 1.2 nM enzyme, 90 minutes, pH 7.0
IDH2-R172K, sequence (P48735 40-452 R172K): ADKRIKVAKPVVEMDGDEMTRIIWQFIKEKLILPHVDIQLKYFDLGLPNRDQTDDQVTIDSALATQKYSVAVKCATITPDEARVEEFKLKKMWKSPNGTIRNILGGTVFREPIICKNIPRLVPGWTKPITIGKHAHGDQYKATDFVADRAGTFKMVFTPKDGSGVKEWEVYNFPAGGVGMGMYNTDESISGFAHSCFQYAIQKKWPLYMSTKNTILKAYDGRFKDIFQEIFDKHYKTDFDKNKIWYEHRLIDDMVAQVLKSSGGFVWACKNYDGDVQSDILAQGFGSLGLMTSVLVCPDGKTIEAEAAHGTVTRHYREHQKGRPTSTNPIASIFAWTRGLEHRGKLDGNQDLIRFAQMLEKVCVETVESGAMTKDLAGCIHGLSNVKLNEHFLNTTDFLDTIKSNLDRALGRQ

Wild-type IDH1, sequence (O75874 whole entry): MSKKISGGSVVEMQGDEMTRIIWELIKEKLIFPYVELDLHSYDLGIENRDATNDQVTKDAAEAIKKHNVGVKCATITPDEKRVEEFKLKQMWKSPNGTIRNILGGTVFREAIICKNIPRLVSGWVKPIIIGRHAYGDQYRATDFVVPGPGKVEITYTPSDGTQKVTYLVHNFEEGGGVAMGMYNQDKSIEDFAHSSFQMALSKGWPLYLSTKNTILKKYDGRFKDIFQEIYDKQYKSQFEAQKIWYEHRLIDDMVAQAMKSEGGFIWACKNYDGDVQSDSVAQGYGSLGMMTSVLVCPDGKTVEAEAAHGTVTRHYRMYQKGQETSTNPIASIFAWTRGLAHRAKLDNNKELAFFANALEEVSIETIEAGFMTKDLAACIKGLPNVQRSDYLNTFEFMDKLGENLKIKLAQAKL
Wild-type IDH2, sequence (P48735 40-452): as the sequence (P48735 40-452 R172K) above, with K133R counted along it
IDH2-R140Q, sequence (P48735 40-452 R140Q): as the sequence (P48735 40-452 R172K) above, with R101Q, K133R counted along it

Row | SMILES | IC50 [1] | IC50 [2] | IC50 [3] | IC50 [4]
1 | C=CC(=O)N1CCN(C(CC)c2ccc([C@H](C)Nc3ncc4c(n3)N(CC)C(=O)OC4)cc2)CC1 (single isomer, unassigned) [Example 11] | 345 nM | 2080 nM | 54.3 nM | 20 nM
2 | C=CC(=O)N1CCN(C(CC2CC2)c2ccc([C@H](C)Nc3ncc4c(n3)N(C)C(=O)OC4)cc2)CC1 (single isomer, unassigned) [Example 3] | 425 nM | 3370 nM | 64.8 nM | 15.6 nM
3 | C=CC(=O)N1CCN([C@@H](CC2CC2)c2ccc([C@H](C)Nc3ncc4c(n3)N(CC)C(=O)OC4)cc2)CC1 [Example 2, 7-[[(1S)-1-[4-[(1S)-2-cyclopropyl-1-(4-prop-2-enoylpiperazin-1-yl)ethyl]phenyl]ethyl]amino]-1-ethyl-4H-pyrimido[4,5-d][1,3]oxazin-2-one] | 105 ± 113 nM | 884 ± 748 nM | 36.9 nM | 11.5 nM
4 | C=CC(=O)N1CCN(C(CC2CC2)c2ccc([C@H](C)Nc3ncc4c(n3)N(C)C(=O)OC4)cc2)CC1 (single isomer, unassigned) [Example 4] | 302 nM | 3700 nM | 81.1 nM | 28 nM
5 | C=CC(=O)N1CCN(C(CC(C)C)c2ccc([C@H](C)Nc3ncc4c(n3)N(CC)C(=O)OC4)cc2)CC1 (single isomer, unassigned) [Example 8] | 237 nM | 1620 nM | 46 nM | 17 nM
6 | C=CC(=O)N1CCN(C(CC(C)C)c2ccc([C@H](C)Nc3ncc4c(n3)N(CC)C(=O)OC4)cc2)CC1 (single isomer, unassigned) [Example 7] | 233 nM | 1530 nM | 74.3 nM | 22.4 nM
7 | C=CC(=O)N1CCN(C(CC(C)C)c2ccc([C@H](C)Nc3ncc4c(n3)N(CC)C(=O)OC4)cc2)CC1 (stereo partly drawn) [Example 6, 1-Ethyl-7-[[(1S)-1-[4-[3-methyl-1-(4-prop-2-enoylpiperazin-1-yl)butyl]phenyl]ethyl]amino]-4H-pyrimido[4,5-d][1,3]oxazin-2-one] | 54.9 nM | 493 nM |  | 
8 | C=CC(=O)N1CCN(C(CCOC)c2ccc([C@H](C)Nc3ncc4c(n3)N(CC)C(=O)OC4)cc2)CC1 (single isomer, unassigned) [Example 13] | 456 nM | 7030 nM | 239 nM | 39 nM
9 | C=CC(=O)N1CCN(C(CC)c2ccc([C@H](C)Nc3ncc4c(n3)N(CC)C(=O)OC4)cc2)CC1 (single isomer, unassigned) [Example 12] | 277 nM | 3220 nM | 134 nM | 26.3 nM
10 | C=CC(=O)N1CCN(C(CCOC)c2ccc([C@H](C)Nc3ncc4c(n3)N(CC)C(=O)OC4)cc2)CC1 (single isomer, unassigned) [Example 14] | 392 nM | 7400 nM | 746 nM | 162 nM
11 | C=CC(=O)N1CCN([C@H](CC2CC2)c2ccc([C@H](C)Nc3ncc4c(n3)N(CC)C(=O)OC4)cc2)CC1 [Example 1, 7-[[(1S)-1-[4-[(1R)-2-Cyclopropyl-1-(4-prop-2-enoylpiperazin-1-yl)ethyl]phenyl]ethyl]amino]-1-ethyl-4H-pyrimido[4,5-d][1,3]oxazin-2-one] | 85.4 ± 107 nM | 801 ± 745 nM | 113 nM | 32.8 nM
